Like-named read-outs stand apart in the source and are kept apart here.
System: CYP450s
Experiment: in vitro
Type: in vitro ADME, human
Conditions: gender-mixed
Description: In vitro incubations were performed to obtain kinetic parameters for the CYP450s-catalyzed conversion of FNT to FNO and MNP using gender-mixed rat and human liver microsomes. For the PON1-dominated detoxification of FNO to MNP, in vitro incubations were conducted with gender-mixed liver microsomes or plasma from rats and humans. Sample extraction with diisopropyl ether was performed before UPLC-PDA analysis. More details on in vitro incubations, sample extraction, UPLC-PDA analysis, and calculation of kinetic parameters are provided in the Supporting Information.
Supplementary materials and methods
Chemical and biological materials
FNT, acetylthiocholine iodide (ATC), 5,5’-dithiobis (2-nitrobenzoic acid) (DTNB), ethopropazine, tetraisopropyl pyrophosphoramide (iso-OMPA), perchloric acid (HClO4), trifluoroacetic acid (TFA), EDTA, MgCl2•6H2O, CaCl2•2H2O, NaH2PO4, Na2HPO4, Triton-X 100, Trizma® base and diisopropyl ether (DIPE) were ordered from Sigma-Aldrich (Amsterdam, The Netherlands). FNO was purchased from FUJIFILM Wako Pure Chemical Corporation (Tokyo, Japan), MNP and reduced nicotinamide adenine dinucleotide phosphate (NADPH) from Carbosynth Ltd. (Compton, UK). Acetonitrile (UPLC/MS grade), methanol (UPLC/MS grade) and ethanol (UPLC/MS grade) were ordered from Biosolve (Valkenswaard, The Netherlands). Chlorpyrifos-oxon was ordered from TRC-Canada (Toronto, Ontario, Canada). Ultrapure water was prepared using a Sartorius Arium® Pro ultrapure water system (Göttingen, Germany).
Human liver microsomes (pooled from 150 donors, mixed gender) and pooled male rat liver microsomes (Sprague-Dawley) were purchased from Corning (Amsterdam, The Netherlands). Pooled female rat liver microsomes (Sprague-Dawley) were ordered from Sigma-Aldrich (St. Louis, MO, USA). […] Human plasma (pooled from 25 donors, mixed gender) and rat plasma (Sprague-Dawley, mixed gender) were ordered from BioIVT (West Sussex, UK), and corresponding total protein concentrations were determined using BCA protein assay (Supporting Information). […]

Structure (SMILES): COP(=S)(OC)Oc1ccc([N+](=O)[O-])c(C)c1 [FNT, O,O-dimethyl O-4-nitro-m-tolyl phosphorothioate]
- Km (both sexes, human, pH 7.4, human liver microsomes, read-out: Km, FNT to FNO (CYP450s-catalyzed)): 21.6 µM
- Km (both sexes, human, pH 7.4, human liver microsomes, read-out: Km, FNT to MNP (CYP450s-catalyzed)): 4.08 µM
- Km (human liver microsomes, read-out: Km, FNT to MNP (CYP450s-catalyzed)): 4.08 µM

Reference: publication PMC10720383, “Acetylcholinesterase Inhibition in Rats and Humans Following Acute Fenitrothion Exposure Predicted by Physiologically Based Kinetic Modeling-Facilitated Quantitative In Vitro to In Vivo Extrapolation” (Environmental Science & Technology, 2023)
